Measurements published in PubChem BioAssay AID330 (DTP/NCI, 2004).
“And” between values parts separate entries of the source, which are not always exact repeats. Identical values can stand only once. Inconclusive results and toxic doses are left out. Rule for the calls: active = survival T/C of 150% or more; inactive = T/C below 125% in these data. Peptide text beside a SMILES is read from it. * marks the point of attachment. Cbz = O=C(OCc1ccccc1)*; Bn = c1ccc(C*)cc1

Test system: P388 leukemia ip, CD2F1 mice, survival T/C
Assay: NCI In Vivo Anticancer Drug Screen. Data for tumor model P388 Leukemia (intraperitoneal) in CD2F1 (CDF1) mice
Settings: endpoint: median survival time, higher = longer survival
Outline: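 Mice carrying the transplanted tumor received test compound or vehicle. Survival was recorded in each group, and the value is the treated-group measurement divided by that of the vehicle-treated control group.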

[1] = dose: 100.0 mg/kg/injection, schedule: Q01DX009 (ip), vehicle: saline with Tween-80
[2] = dose: 100.0 mg/kg/injection, schedule: Q04DX003 (ip), vehicle: saline with Tween-80
[3] = dose: 200.0 mg/kg/injection, schedule: Q04DX003 (ip), vehicle: saline with Tween-80
[4] = dose: 400.0 mg/kg/injection, schedule: Q04DX003 (ip), vehicle: saline with Tween-80
[5] = dose: 25.0 mg/kg/injection, schedule: Q01DX009 (ip), vehicle: Klucel (hydroxypropylcellulose) (HPC)
[6] = dose: 50.0 mg/kg/injection, schedule: Q01DX009 (ip), vehicle: Klucel (hydroxypropylcellulose) (HPC)

Measured: T/C

Cc1nc(Cl)c2cnccn12
inactive: dose: 25.0 mg/kg/injection, schedule: Q04DX003 (ip), vehicle: saline 100 % of control | dose: 50.0 mg/kg/injection, schedule: Q04DX003 (ip), vehicle: saline 100 % of control

COC1=C(OC)C(=O)C(Sc2ccccc2)=C(CO)C1=O
inactive: dose: 1.56 mg/kg/injection, schedule: Q01DX005 (ip), vehicle: saline with Tween-80 92 % of control | dose: 3.12 mg/kg/injection, schedule: Q01DX005 (ip), vehicle: saline with Tween-80 87 % of control | dose: 12.5 mg/kg/injection, schedule: Q01DX005 (ip), vehicle: saline with Tween-80 99 % of control

Clc1nc(Cl)c2c3c(sc2n1)CCCC3
inactive: dose: 60.0 mg/kg/injection, schedule: Q01DX005 (ip), vehicle: Klucel (hydroxypropylcellulose) (HPC) 91 % of control | dose: 120.0 mg/kg/injection, schedule: Q01DX005 (ip), vehicle: Klucel (hydroxypropylcellulose) (HPC) 90 % of control | dose: 240.0 mg/kg/injection, schedule: Q01DX005 (ip), vehicle: Klucel (hydroxypropylcellulose) (HPC) 99 % of control

O=C(O)Cc1ccc(C2CCCCC2)cc1
inactive: dose: 100.0 mg/kg/injection, schedule: Q04DX003 (ip), vehicle: Klucel (hydroxypropylcellulose) (HPC) 90 % of control | dose: 200.0 mg/kg/injection, schedule: Q04DX003 (ip), vehicle: Klucel (hydroxypropylcellulose) (HPC) 100 % of control | dose: 400.0 mg/kg/injection, schedule: Q04DX003 (ip), vehicle: Klucel (hydroxypropylcellulose) (HPC) 100 % of control

Cc1ccc(C(=O)c2ccccc2C(=O)O)cc1N
inactive: [1] 100 % of control | [2] 100 % of control | dose: 200.0 mg/kg/injection, schedule: Q01DX009 (ip), vehicle: saline with Tween-80 100 % of control | [3] 100 % of control | dose: 400.0 mg/kg/injection, schedule: Q01DX009 (ip), vehicle: saline with Tween-80 100 % of control | [4] 108 % of control

C[N+](C)(Cc1ccc(Br)cc1)C1c2ccccc2-c2ccccc21
inactive: dose: 12.5 mg/kg/injection, schedule: Q01DX009 (ip), vehicle: Klucel (hydroxypropylcellulose) (HPC) 107 % of control | [5] 108 % of control | [6] 115 % of control and 98 % of control

COC(=O)C(CSCc1ccccc1)NC(=O)C(CC(N)=O)NC(=O)OCc1ccccc1 (stereo not drawn) (Cbz-Asn-Cys(Bn)-OMe; configuration not given here)
inactive: dose: 12.5 mg/kg/injection, schedule: Q01DX009 (ip), vehicle: distilled water + Tween-80 88 % of control | dose: 25.0 mg/kg/injection, schedule: Q01DX009 (ip), vehicle: distilled water + Tween-80 88 % of control | dose: 50.0 mg/kg/injection, schedule: Q01DX009 (ip), vehicle: distilled water + Tween-80 91 % of control | dose: 100.0 mg/kg/injection, schedule: Q01DX009 (ip), vehicle: distilled water + Tween-80 92 % of control | dose: 200.0 mg/kg/injection, schedule: Q01DX009 (ip), vehicle: distilled water + Tween-80 103 % of control

CCS(=O)(=O)OCCCCOS(=O)(=O)CC
inactive: dose: 12.5 mg/kg/injection, schedule: Q01DX009 (ip), vehicle: saline with Tween-80 100 % of control and 97 % of control | dose: 25.0 mg/kg/injection, schedule: Q01DX009 (ip), vehicle: saline with Tween-80 103 % of control and 93 % of control | dose: 50.0 mg/kg/injection, schedule: Q01DX009 (ip), vehicle: saline with Tween-80 115 % of control and 90 % of control | [1] 114 % of control and 90 % of control

CC(C)=CCC/C(C)=C/CC1=CC(=O)C=CC1=O
inactive: [5] 101 % of control | [6] 97 % of control | dose: 100.0 mg/kg/injection, schedule: Q01DX009 (ip), vehicle: Klucel (hydroxypropylcellulose) (HPC) 87 % of control

CC(C(=O)O)C(Nc1ncnc2c1ncn2C1OC(CO)C(O)C1O)C(=O)O (centres undefined)
inactive: dose: 100.0 mg/kg/injection, schedule: Q04DX003 (ip), vehicle: saline 98 % of control | dose: 200.0 mg/kg/injection, schedule: Q04DX003 (ip), vehicle: saline 100 % of control | dose: 400.0 mg/kg/injection, schedule: Q04DX003 (ip), vehicle: saline 98 % of control

Nc1ccc([N+](=O)[O-])c(N)n1
inactive: [2] 100 % of control | [3] 107 % of control | [4] 97 % of control

CC(=O)Nc1ccc(-c2csc(Nc3ccnc4cc(Cl)ccc34)n2)cc1
inactive: dose: 50.0 mg/kg/injection, schedule: Q01DX005 (ip), vehicle: saline with Tween-80 93 % of control and 95 % of control | dose: 100.0 mg/kg/injection, schedule: Q01DX005 (ip), vehicle: saline with Tween-80 92 % of control | dose: 200.0 mg/kg/injection, schedule: Q01DX005 (ip), vehicle: saline with Tween-80 90 % of control and 92 % of control

Cc1cc2cc3c4c(nn5nnnc5c4c2o1)-c1ccccc1CC3
inactive: dose: 50.0 mg/kg/injection, schedule: Q01DX005 (ip), vehicle: Klucel (hydroxypropylcellulose) (HPC) 92 % of control | dose: 100.0 mg/kg/injection, schedule: Q01DX005 (ip), vehicle: Klucel (hydroxypropylcellulose) (HPC) 86 % of control | dose: 200.0 mg/kg/injection, schedule: Q01DX005 (ip), vehicle: Klucel (hydroxypropylcellulose) (HPC) 95 % of control
